Results: ChEMBL document CHEMBL1146420, “Isolation and characterization of 1,3-dimethylisoguanine from the Bermudian sponge Amphimedon viridis” (J Nat Prod, 1997)
In brackets after ≈: the same amount, converted by molar mass.

Test: Cytotoxicity against human ovarian cancer cells
Assay type: functional, cell-based
Settings: Cancer cell lines

Cn1c(=N)c2nc[nH]c2n(C)c1=O
IC50: 2.1 µg/mL (≈ 11.7 µM)
